From PMC10747822 (Pharmaceutics, 2023)

Columns and labels:
[1] = Pooled human plasma (Li-heparin); settings: room temperature, up to 2 h
[2] = human whole blood (K-EDTA); settings: room temperature, up to 2 h

## Ac-[D-Leu]LLLRVK-amba
[1]
  not cleaved: no detectable degradation over at least 2 h
[2]
  not cleaved: no detectable degradation over at least 2 h
